From patent US11298314B2, “Injectable composition for localized fat reduction without pain, edema, and side effects, and method for preparing same” (AMI PHARM CO., LTD., priority 2017, dated 2022)

What was measured:
[1] = Formulation stability of PPC injectable preparations: property, transparency, particle size, pH; conditions: for bile acid/PPC molar ratio below which a substantially stable formulation did not occur: PPC 5.0%; for bile acid concentration at which stable injectable preparations can be made: based on PPC 5.0%
Experimental: The particle size was measured using a nano particle size analyzer (Microtrac Wave, MICROTRACT, USA). […] The transparency was measured using a spectrophotometer (CM-3600d, KONICA MINOLTA, JAPAN). The pH was measured with a pH meter (ST3100, OHAUS, GERMANY), and the isotonicity was measured with an osmotic pressure meter (Vapro 5600, Elitech Group, Tokyo, Japan), and viscosity was analyzed using a viscometer (Digital Viscometer CL-2, CAS, Korea).
The washed and sterilized preparation tank was charged with the water for injection (at room temperature), and phosphatidylcholine (PPC) and benzyl alcohol were added thereto, and the mixture was stirred at 200 RPM for 2 hours under the condition of nitrogen pressure, shading and room temperature. After the completion of stirring, the mixture was transferred to an ultra-high pressure homogenizer (Nano Disperser NLM100, Ilshin Autoclave, Korea) with a nitrogen pressure. Ultra-high pressure homogenization (dispersion) was carried out at 12,000 psi for 7 cycles, and the particles were finely pulverized. Then, the pH was adjusted. After filtration through a 0.2 μm filter, the vial was filled and sealed.
Specifically, the water for injection was put into the preparation tank which was cleaned and sterilized (room temperature), and sodium hydroxide was added to the water for injection. Then deoxycholic acid and benzyl alcohol were added, stirred and dissolved. Then, phosphatidylcholine was added thereto, and the mixture was stirred at 200 RPM for about 24 hours under shading, sealing, room temperature (25° C.), and nitrogen pressure. After completion of the stirring, the pH was adjusted (if necessary, with additional sodium hydroxide or hydrochloric acid), and it was filtered through a 0.2 μm filter, and filled into the vial and sealed.
Then glycocholic acid and benzyl alcohol were added, stirred and dissolved. Then, phosphatidylcholine was added thereto, and the mixture was stirred at 200 RPM for about 24 hours under shading, sealing, room temperature (25° C.), and nitrogen pressure. After completion of the stirring, the pH was adjusted (if necessary, with additional sodium hydroxide or 0.001-0.6% of hydrochloric acid), and it was filtered through a 0.2 μm filter, and filled into the vial and sealed.
The formulation stability of the PPC injectable compositions solubilized with glycocholic acid (GCA) in Tables 3 and 4 was evaluated immediately after the preparation and 30 days after the preparation (refrigerated storage).

sole of the rat paws = assay: Measurement of skin lesion (erythema) on rat paw; assay type: in vivo, Sprague Dawley rats; conditions: for skin lesion (erythema) in words: 2 hours after administration;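 for grade of skin lesion (erythema), 1 hour after administration: grades − to ++++ mean no to extremely severe erythema versus before injection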;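 for grade of skin lesion (erythema), 2 hours after administration: grades − to ++++ mean no to extremely severe erythema versus before injection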;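 for grade of skin lesion (erythema), Immediately after administration: grades − to ++++ mean no to extremely severe erythema versus before injection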
Experimental: (§1) To evaluate the degree of edema, each test compositions described above were injected into the paw of the rats. Specifically, male Sprague Dawley rats (6 weeks old) were purchased and used after one week of adaptation. The rats (body weight: 170˜200 g) were randomly selected and the thickness of the rat paw were measured with a caliper before the administration of the test compositions. In order to observe the edema, 0.1 ml of PBS and the various test compositions were administered to the paws of the rats. Measurements of the […] were performed by a caliper immediately before the injection, immediately after the injection, and 1 or 2 hours after the injection. In addition, when the thickness was measured, the skin lesion of the injection site was observed by photographing the sole of the paw (using a 4×4 cm scale).
The grades of skin lesion were evaluated as 0 to 4 grades.

paw of the rats = assay: Rat paw edema; assay type: in vivo, Sprague Dawley rats; conditions: for degree of edema in words: 2 hours after administration, rat paw; for degree of edema, 1 hour after administration / degree of edema, 2 hours after administration / degree of edema, Immediately after administration: 0.1 ml into rat paw
Experimental: as §1
The degree of edema was evaluated as 0 to 4 grades.

[2] = tested on: tissues of the injected area (rat paw); assay: H&E staining histological test (inflammation) of injected rat paw; assay type: in vivo, Sprague Dawley rats; conditions: for Inflammation (H&E), BA % (w/v) 1.0: bile acid single composition 1.0% (w/v); for degree of inflammation (H&E) in words: rats sacrificed at 3 hours, injected paw
Experimental: The tissues of the injected area were dissected, fixed with 10% formalin, and then the specimen was prepared and images were captured using an optical microscope. The degree of inflammation was evaluated as follows.

[3] = bile acid single composition 1.0% (w/v)
[4] = bile acid single composition 2.5% (w/v)
[5] = bile acid single composition 5.0% (w/v)
[6] = bile acid single composition 7.5% (w/v)

SMILES | bile acid/PPC molar ratio below which a substantially stable formulation did not occur [1] | bile acid concentration at which stable injectable preparations can be made [1] [%] | grade of skin lesion (erythema), 1 hour after administration (sole of the rat paws; [3]) | grade of skin lesion (erythema), 2 hours after administration (sole of the rat paws; [3]) | grade of skin lesion (erythema), Immediately after administration (sole of the rat paws; [3]) | grade of skin lesion (erythema), 1 hour after administration (sole of the rat paws; [4]) | grade of skin lesion (erythema), 2 hours after administration (sole of the rat paws; [4]) | grade of skin lesion (erythema), Immediately after administration (sole of the rat paws; [4]) | grade of skin lesion (erythema), 1 hour after administration (sole of the rat paws; [5]) | grade of skin lesion (erythema), 2 hours after administration (sole of the rat paws; [5]) | grade of skin lesion (erythema), Immediately after administration (sole of the rat paws; [5]) | grade of skin lesion (erythema), 1 hour after administration (sole of the rat paws; [6]) | grade of skin lesion (erythema), 2 hours after administration (sole of the rat paws; [6]) | grade of skin lesion (erythema), Immediately after administration (sole of the rat paws; [6]) | degree of edema, 1 hour after administration (paw of the rats; [3]) | degree of edema, 2 hours after administration (paw of the rats; [3]) | degree of edema, Immediately after administration (paw of the rats; [3]) | degree of edema, 1 hour after administration (paw of the rats; [4]) | degree of edema, 2 hours after administration (paw of the rats; [4]) | degree of edema, Immediately after administration (paw of the rats; [4]) | further results
C[C@H](CCC(=O)NCC(=O)O)[C@H]1CC[C@H]2[C@@H]3CCC4C[C@H](O)CC[C@]4(C)[C@H]3C[C@H](O)[C@]12C (stereo partly drawn) [GDCA, 2-[[(4R)-4-[(3R,8R,9S,10S,12S,13R,14S,17R)-3,12-dihydroxy-10,13-dimethyl-2,3,4,5,6,7,8,9,11,12,14,15,16,17-tetradecahydro-1H-cyclopenta[a]phenanthren-17-yl]pentanoyl]amino]acetic acid] | less than 0.87 | ≥ 2.4 | ++ | ++ | ++ | ++++ | ++++ | ++ | ++++ | ++++ | ++ | ++++ | ++++ | ++ | +++ (severe edema [+++, (the degree of swelling was 40-60% compared to before the injection)]) | ++ (moderate edema [++, (the degree of swelling was 20-40% compared to before the injection)]) | ++ (moderate edema [++, (the degree of swelling was 20-40% compared to before the injection)]) | +++ (severe edema [+++, (the degree of swelling was 40-60% compared to before the injection)]) | +++ (severe edema [+++, (the degree of swelling was 40-60% compared to before the injection)]) | ++ (moderate edema [++, (the degree of swelling was 20-40% compared to before the injection)]) | skin lesion (erythema) in words (sole of the rat paws; listed as GDCA 1.0%): Moderate; skin lesion (erythema) in words (sole of the rat paws; listed as GDCA 2.5%): “severe” and “extremely severe”; degree of edema in words (paw of the rats; listed as GDCA 1.0%): moderate; degree of edema in words (paw of the rats; listed as GDCA 2.5%): “severe” and “extremely severe”; degree of edema, 1 hour after administration (paw of the rats; [5]): ++++ (extremely severe edema [++++, (the degree of swelling was 60% or more compared to before the injection)]); degree of edema, 2 hours after administration (paw of the rats; [5]): ++++ (extremely severe edema [++++, (the degree of swelling was 60% or more compared to before the injection)]); degree of edema, Immediately after administration (paw of the rats; [5]): ++ (moderate edema [++, (the degree of swelling was 20-40% compared to before the injection)]); degree of edema, 1 hour after administration (paw of the rats; [6]): ++++ (extremely severe edema [++++, (the degree of swelling was 60% or more compared to before the injection)]); degree of edema, 2 hours after administration (paw of the rats; [6]): ++++ (extremely severe edema [++++, (the degree of swelling was 60% or more compared to before the injection)]); degree of edema, Immediately after administration (paw of the rats; [6]): ++ (moderate edema [++, (the degree of swelling was 20-40% compared to before the injection)]); Inflammation (H&E), BA % (w/v) 1.0 ([2]; injected rat paw): ++; Inflammation (H&E), BA % (w/v) 2.5 ([2]; bile acid single composition 2.5% (w/v), injected rat paw): +++; degree of inflammation (H&E) in words [2]: Moderate
C[C@H](CCC(=O)NCCS(=O)(=O)O)[C@H]1CC[C@H]2C3CC[C@@H]4C[C@H](O)CC[C@]4(C)[C@H]3C[C@H](O)[C@]12C (stereo partly drawn) [TDCA, 2-[[(4R)-4-[(3R,5R,9S,10S,12S,13R,14S,17R)-3,12-dihydroxy-10,13-dimethyl-2,3,4,5,6,7,8,9,11,12,14,15,16,17-tetradecahydro-1H-cyclopenta[a]phenanthren-17-yl]pentanoyl]amino]ethanesulfonic acid] | less than 0.74 | ≥ 2.3 | +++ | ++ | + | +++ | +++ | ++ | ++++ | ++++ | ++ | ++++ | ++++ | ++ | +++ (severe edema [+++, (the degree of swelling was 40-60% compared to before the injection)]) | +++ (severe edema [+++, (the degree of swelling was 40-60% compared to before the injection)]) | ++ (moderate edema [++, (the degree of swelling was 20-40% compared to before the injection)]) | +++ (severe edema [+++, (the degree of swelling was 40-60% compared to before the injection)]) | +++ (severe edema [+++, (the degree of swelling was 40-60% compared to before the injection)]) | ++ (moderate edema [++, (the degree of swelling was 20-40% compared to before the injection)]) | skin lesion (erythema) in words (sole of the rat paws; listed as TDCA 1.0%): Moderate; skin lesion (erythema) in words (sole of the rat paws; listed as TDCA 2.5%): “severe” and “extremely severe”; degree of edema in words (paw of the rats; listed as TDCA 2.5%): “severe” and “extremely severe”; degree of edema, 1 hour after administration (paw of the rats; [5]): ++++ (extremely severe edema [++++, (the degree of swelling was 60% or more compared to before the injection)]); degree of edema, 2 hours after administration (paw of the rats; [5]): ++++ (extremely severe edema [++++, (the degree of swelling was 60% or more compared to before the injection)]); degree of edema, Immediately after administration (paw of the rats; [5]): ++ (moderate edema [++, (the degree of swelling was 20-40% compared to before the injection)]); degree of edema, 1 hour after administration (paw of the rats; [6]): ++++ (extremely severe edema [++++, (the degree of swelling was 60% or more compared to before the injection)]); degree of edema, 2 hours after administration (paw of the rats; [6]): ++++ (extremely severe edema [++++, (the degree of swelling was 60% or more compared to before the injection)]); degree of edema, Immediately after administration (paw of the rats; [6]): ++ (moderate edema [++, (the degree of swelling was 20-40% compared to before the injection)]); Inflammation (H&E), BA % (w/v) 1.0 ([2]; injected rat paw): ++; degree of inflammation (H&E) in words [2]: Moderate
